Source: patent US7662789B2, “Peptide substance restoring myocardium function” (“Access Bioscience” CJSC, priority 2004, dated 2010)
Where a SMILES comes first, the peptide text is derived from it.

System: isolated guinea pig heart
Assay: Isolated guinea pig heart, Langendorf perfusion, 30 min total ischemia and re-perfusion
Parameters: species or system guinea pigs
Protocol: The experiment was conducted under conditions of perfusion in isolated hearts of 60 male guinea pigs, by Langendorf. The animals were randomly subdivided into several groups, each consisting of 6 animals. Total cardiac ischemia was induced by means of fully tightening the perfusional solution hose for 30 minutes. Then re-perfusion was performed under the same conditions as before ischemia (control group). In experimental animals perfusion was performed together with Ala-Glu-Asp-Arg (SEQ ID NO:1) tetrapeptide in the concentrations of 0.002-0.05 μg/ml. Mechanical contractions were registered, bioptates, weighing approximately 10 mg, were several times taken from the top of the heart, then the content of malon dialdegide (MDA) was identified in them. The hearts in the end of the experiment and partially before ischemia were frozen in liquid nitrogen for ATP, ADP and AMP content identification.

[1] = 0.002 μg/ml, re-perfusion 15 min
[2] = 0.002 μg/ml, re-perfusion 30 min
[3] = 0.005 μg/ml, re-perfusion 15 min
[4] = 0.005 μg/ml, re-perfusion 30 min
[5] = 0.01 μg/ml, re-perfusion 15 min
[6] = 0.01 μg/ml, re-perfusion 30 min
[7] = 0.05 μg/ml, re-perfusion 15 min
[8] = 0.05 μg/ml, re-perfusion 30 min

## C[C@H](N)C(=O)N[C@@H](CCC(=O)O)C(=O)N[C@@H](CC(=O)O)C(=O)N[C@@H](CCCNC(=N)N)C(=O)O [Tetrapeptide, L-alanyl-L-glutamyl-L-aspartyl-L-arginine] (H-AEDR-OH)
0.002 μg/ml, before ischemia
  Amplitude of contractions, % of initial: 100 % of initial
  MDA: 225 ± 23 nmole/g of tissue
[1]
  Amplitude of contractions, % of initial: 70 ± 13 % of initial
  MDA: 216 ± 5 nmole/g of tissue
[2]
  Amplitude of contractions, % of initial: 81 ± 16 % of initial
  MDA: 220 ± 12 nmole/g of tissue
0.005 μg/ml, before ischemia
  Amplitude of contractions, % of initial: 100 % of initial
  MDA: 168 ± 25 nmole/g of tissue
[3]
  Amplitude of contractions, % of initial: 89 ± 6 % of initial
  MDA: 231 ± 7 nmole/g of tissue
[4]
  Amplitude of contractions, % of initial: 93 ± 5 % of initial
  MDA: 186 ± 10 nmole/g of tissue
0.01 μg/ml, before ischemia
  Amplitude of contractions, % of initial: 100 % of initial
  MDA: 203 ± 18 nmole/g of tissue
[5]
  Amplitude of contractions, % of initial: 61 ± 4 % of initial
  MDA: 248 ± 8 nmole/g of tissue
[6]
  Amplitude of contractions, % of initial: 64 ± 3 % of initial
  MDA: 220 ± 9 nmole/g of tissue
0.05 μg/ml, before ischemia
  Amplitude of contractions, % of initial: 100 % of initial
  Energy charge: 7.78 ± 0.14 μmole of adenosine phosphates/g of tissue
  MDA: 156 ± 28 nmole/g of tissue
[7]
  Amplitude of contractions, % of initial: 38 ± 13 % of initial
  MDA: 264 ± 13 nmole/g of tissue
[8]
  Amplitude of contractions, % of initial: 32 ± 9 % of initial
  Energy charge: 2.98 ± 0.35 μmole of adenosine phosphates/g of tissue
  MDA: 252 ± 11 nmole/g of tissue
0.002-0.005 μg/ml, before ischemia
  Energy charge: 7.68 ± 0.21 μmole of adenosine phosphates/g of tissue
0.002-0.005 μg/ml, re-perfusion 30 min
  Energy charge: 6.01 ± 0.23 μmole of adenosine phosphates/g of tissue
Perfusion without ischemia
  Influence on the status of the normal heart: does not influence the status of the normal heart
